The test system of this test is nerve/muscle (motor plate) junction, phrenic nerve/diaphragm preparation (striated muscle). Put plainly: Muscle-relaxant effect on contractions of isolated rat phrenic nerve/diaphragm preparation induced by indirect stimulation via the phrenic nerve. To be noted: for inhibition at 10 µM / IC50: Rattus norvegicus; for inhibition at 10 µM: read-out: % INHIBITION OF CONTRACTIONS; for IC50: cumulative concentrations 10^−10 M to 10^−5 M, read-out: IC50 (concentration to obtain 50% of the inhibitory effect). How it is done:
Hecogenin acetate and diosgenin, sold by Sigma, were tested on a model of nerve/muscle (motor plate) junction obtained in a phrenic nerve/diaphragm preparation isolated from rat (striated muscle) (Pollard B. J. et al, Br. J. Anaesth., 1988, 61, 419-424).
The phrenic nerve and the diaphragm are carefully isolated and placed in a 50 ml tank filled with survival liquid (Krebs-Henseleit liquid) maintained at a temperature of 37° C. and oxygenated with an oxygen/CO2 mixture (95/5).
The tension variations of the diaphragm are recorded with an initial pre-load of several grams.
After a relaxation period of 30 minutes, the diaphragm is stimulated indirectly via the phrenic nerve. […]

[1] abbreviates: contractions induced by indirect stimulation via phrenic nerve.

Where two headings read alike, the source gives them in different places.

As a reminder, the inhibition is the change of the read-out against control, counted positive when it falls.

`CCN(CCCc1ccccc1)CCCc1ccccc1` [alverine, reference compound]: the “inhibition of the contractions induced by the indirect stimulations” value (concentration 10^−4 M) is on record as “completely inhibits”. Also, the “effect on the contractions induced by the indirect stimulations” value (concentration 10^−5 M) is “no effect”.

In the case of `CC(=O)O[C@H]1CC[C@@]2(C)[C@@H](CC[C@@H]3[C@@H]2CC(=O)[C@]2(C)[C@@H]4[C@H](C[C@@H]32)O[C@]2(CC[C@@H](C)CO2)[C@H]4C)C1` [Hecogenin acetate], the inhibition at 10 µM worked out at 100%. The IC50 under setting [1] was determined as 2.5 µM.

As to `C[C@@H]1CC[C@@]2(OC1)O[C@H]1C[C@H]3[C@@H]4CC=C5C[C@@H](O)CC[C@]5(C)[C@H]4CC[C@]3(C)[C@H]1[C@@H]2C` [Diosgenin], the inhibition at 10 µM (concentration 10^−5 M, contractions induced by indirect stimulation via phrenic nerve) turned out to be 100%. Also, the IC50 under setting [1] was determined as 1 µM.

These data come from US7354956B2, “Composition containing a sapogenin and use thereof” (L'Oreal, priority 2002, dated 2008).
